Key:
Assay type in all cases: physicochemical
[1] = Fine particle mass of nintedanib suspension in HFO-1234ze(E), coated 63-microliter valve; settings: nominal 1 mg/actuation (15.9 mg/mL), HFO-1234ze(E) without ethanol
Method: (§1) In the following examples, dose consistency was determined by in vitro measurement of single actuation dose content at start, middle and end of pMDI unit life in line with U.S. Pharmacopeia (USP)<601>, using a flow rate of 28.3 L/min and apparatus A. Aerodynamic particle size distribution of the pMDI suspension aerosols was measured at start of unit life in line with U.S. Pharmacopeia (USP)<601> using a Next Generation impactor without pre-separator (apparatus 6) and a flow rate of 30 L/min.
(§2) A suspension of nintedanib was prepared in HFO-1234ze(E). The concentration of nintedanib (15.9 mg/mL) was selected to provide a nominal actuation dose of 1 mg/actuation from a 63-microliter valve. The bottle emptier, tank, spring, and ferrule components of the valves were coated with a fluoropolymer coating according to the general process described in Example 2 of U.S. Patent Application Publication 2017/0152396 A1 (Jinks et al., hereby incorporated by reference). The formulation was mixed with a high shear mixer and cold filled into 16 mL FEP-coated canisters.
(§3) Average fine particle mass (<5 μm) was 434 μg/actuation.

[2] = Aerodynamic particle size measurement of nintedanib (free base) pMDI suspensions (Next Generation impactor)
Source text: In general, aerosols with mass median aerodynamic diameters (MMAD) of at least 1 μm but less than 5 μm in size are suitable for effective deep lung deposition for therapeutic effect. Herein, fine particle fraction (FPF) is defined as the percentage of the ex-actuator delivered API having a MMAD of less than 5 μm when tested in vitro. Herein, “ex-actuator” delivered dose is used to describe the amount of API delivered past the actuator of a pMDI. Therefore, an aerosol with a high FPF is typically suitable for deep lung deposition.
as §1
(§4) Suspensions of micronized nintedanib (free base) in HFA-152a or HFO-1234ze(E) were prepared. A first set of suspensions included no ethanol. A second set of suspensions included 2% ethanol by weight. Each suspension included an amount of nintedanib (free base) to provide a nominal delivered dose (ex-valve) of 0.5 mg/actuation (7.94 mg/mL) or 1.0 mg/actuation (15.87 mg/mL). Two further suspensions including no ethanol were prepared which included an amount of nintedanib (free base) to provide a nominal delivered dose (ex-valve) of 2.0 mg/actuation (20.0 mg/mL).
(§5) In total, ten suspension pMDI formulations were prepared in triplicate with sufficient fill weight to provide 60 actuations. The pMDI formulations containing 0.5 mg/actuation (7.94 mg/mL) and 1.0 mg/actuation (15.87 mg/mL) of nintedanib (free base) were filled into Kindeva FEP coated canisters, crimped with a Kindeva 63-μL valve. The pMDI formulations containing 2.0 mg/actuation (20.0 mg/mL) of nintedanib (free base) were filled into Kindeva FEP coated canisters, crimped with a Kindeva 100-μL valve. Each pMDI unit was sonicated for at least 10 minutes to disperse the suspended drug and tested with a Kindeva actuator having an exit orifice diameter (EOD) of 0.4 mm. The mass median aerodynamic diameter (MMAD) and fine particle fraction (FPF) of each pMDI unit were measured by Next Generation cascade impaction (N=3) for each pMDI suspension.

[3] = Through life dose consistency of nintedanib (free base) pMDI suspensions (USP <601>, apparatus A)
Method: as §1, §4
as §5, with “mm.” for “mm. The mass median aerodynamic diameter (MMAD) and fine particle fraction (FPF) of each pMDI unit were measured by Next Generation cascade impaction (N=3) for each pMDI suspension.”
The through-life (TL) dose consistency of each pMDI unit was determined by measuring the mean ex-actuator delivered dose in micrograms of nintedanib (free base) (N=3) at the start of life (SoL), middle of life (MOL) and end of life (EoL) of the unit.

[4] = Additional through life dosing content uniformity of nintedanib suspension in HFO-1234ze(E), coated 63-microliter valve; settings: nominal 1 mg/actuation (15.9 mg/mL), HFO-1234ze(E) without ethanol
Method: as §1, §2, §3

[5] = nominal ex-valve 0.5 mg/act, HFA-152a/2% EtOH (w/w), 63-μL valve
[6] = nominal ex-valve 0.5 mg/act, HFA-152a, 63-μL valve
[7] = nominal ex-valve 0.5 mg/act, HFO-1234ze(E)/2% EtOH (w/w), 63-μL valve
[8] = nominal ex-valve 0.5 mg/act, HFO-1234ze(E), 63-μL valve
[9] = nominal ex-valve 1.0 mg/act, HFA-152a/2% EtOH (w/w), 63-μL valve
[10] = nominal ex-valve 1.0 mg/act, HFA-152a, 63-μL valve
[11] = nominal ex-valve 1.0 mg/act, HFO-1234ze(E)/2% EtOH (w/w), 63-μL valve
[12] = nominal ex-valve 1.0 mg/act, HFO-1234ze(E), 63-μL valve
[13] = nominal ex-valve 2.0 mg/act, HFA-152a, 100-μL valve
[14] = nominal ex-valve 2.0 mg/act, HFO-1234ze(E), 100-μL valve
[15] = nominal ex-valve 0.5 mg/act, HFA152a/2% EtOH (w/w), 63-μL valve
[16] = nominal ex-valve 0.5 mg/act, HFA152a, 63-μL valve
[17] = nominal ex-valve 0.5 mg/act, HFO1234ze(E)/2% EtOH (w/w), 63-μL valve
[18] = nominal ex-valve 0.5 mg/act, HFO1234ze(E), 63-μL valve
[19] = nominal ex-valve 1.0 mg/act, HFA152a/2% EtOH (w/w), 63-μL valve
[20] = nominal ex-valve 1.0 mg/act, HFA152a, 63-μL valve
[21] = nominal ex-valve 1.0 mg/act, HFO1234ze(E)/2% EtOH (w/w), 63-μL valve
[22] = nominal ex-valve 1.0 mg/act, HFO1234ze(E), 63-μL valve
[23] = nominal ex-valve 2.0 mg/act, HFA152a, 100-μL valve
[24] = nominal ex-valve 2.0 mg/act, HFO1234ze(E), 100-μL valve

SMILES: COC(=O)c1ccc2c(c1)NC(=O)/C2=C(\Nc1ccc(N(C)C(=O)CN2CCN(C)CC2)cc1)c1ccccc1 [nintedanib (free base), nintedanib]
- Average fine particle mass (<5 μm) [1]: 434 μg/actuation
- MMAD values of aerosols, suitability ([2]; HFA-152a or HFO-1234ze(E), with and without ethanol, in-vitro): in an appropriate respirable range
- FPF and MMAD without ethanol compared with corresponding suspensions with 2% ethanol by weight ([2]; HFA-152a or HFO-1234ze(E), all nominal doses): consistently produced greater FPFs and smaller MMADs
- Mean FPF [2, 5]: 26.9%
- Mean MMAD [2, 5]: 3.65 μm
- Mean FPF [2, 6]: 33.7%
- Mean MMAD [2, 6]: 3.74 μm
- Mean FPF [2, 7]: 36.8%
- Mean MMAD [2, 7]: 3.50 μm
- Mean FPF [2, 8]: 60.0%
- Mean MMAD [2, 8]: 2.88 μm
- Mean FPF [2, 9]: 18.0%
- Mean MMAD [2, 9]: 4.74 μm
- Mean FPF [2, 10]: 23.8%
- Mean MMAD [2, 10]: 5.01 μm
- Mean FPF [2, 11]: 29.3%
- Mean MMAD [2, 11]: 4.20 μm
- Mean FPF [2, 12]: 44.4%
- Mean MMAD [2, 12]: 3.66 μm
- Mean FPF [2, 13]: 16.7%
- Mean MMAD [2, 13]: 7.47 μm
- Mean FPF [2, 14]: 34.8%
- Mean MMAD [2, 14]: 4.08 μm
- FPF and MMAD in HFO-1234ze(E) compared with corresponding suspensions in HFA-152a ([2]; with or without ethanol): consistently produced greater FPFs and smaller MMADs
- effect of addition of ethanol on through unit life ex-actuator delivered dose consistency ([3]; 2% ethanol by weight, HFA-152a or HFO-1234ze(E)): did not always substantially improve
- through unit life ex-actuator delivered dose consistency ([3]; HFA-152a or HFO-1234ze(E) with and without 2% ethanol by weight): relatively consistent
- EoL mean delivered dose [3, 15]: 383.1 μg/act
- MoL mean delivered dose [3, 15]: 364.6 μg/act
- SoL mean delivered dose [3, 15]: 452.4 μg/act
- TL mean delivered dose [3, 15]: 400.1 μg/act
- EoL mean delivered dose [3, 16]: 335.9 μg/act
- MoL mean delivered dose [3, 16]: 360.0 μg/act
- SoL mean delivered dose [3, 16]: 468.9 μg/act
- TL mean delivered dose [3, 16]: 388.3 μg/act
- EoL mean delivered dose [3, 17]: 378.0 μg/act
- MoL mean delivered dose [3, 17]: 385.9 μg/act
- SoL mean delivered dose [3, 17]: 431.1 μg/act
- TL mean delivered dose [3, 17]: 398.3 μg/act
- EoL mean delivered dose [3, 18]: 380.5 μg/act
- MoL mean delivered dose [3, 18]: 372.8 μg/act
- SoL mean delivered dose [3, 18]: 401.8 μg/act
- TL mean delivered dose [3, 18]: 385.0 μg/act
- EoL mean delivered dose [3, 19]: 818.8 μg/act
- MoL mean delivered dose [3, 19]: 773.1 μg/act
- SoL mean delivered dose [3, 19]: 940.6 μg/act
- TL mean delivered dose [3, 19]: 844.2 μg/act
- EoL mean delivered dose [3, 20]: 890.2 μg/act
- MoL mean delivered dose [3, 20]: 759.1 μg/act
- SoL mean delivered dose [3, 20]: 1020.0 μg/act
- TL mean delivered dose [3, 20]: 889.8 μg/act
- EoL mean delivered dose [3, 21]: 818.5 μg/act
- MoL mean delivered dose [3, 21]: 824.9 μg/act
- SoL mean delivered dose [3, 21]: 926.7 μg/act
- TL mean delivered dose [3, 21]: 856.7 μg/act
- EoL mean delivered dose [3, 22]: 947.3 μg/act
- MoL mean delivered dose [3, 22]: 962.2 μg/act
- SoL mean delivered dose [3, 22]: 947.8 μg/act
- TL mean delivered dose [3, 22]: 952.4 μg/act
- EoL mean delivered dose [3, 23]: 1954.6 μg/act
- MoL mean delivered dose [3, 23]: 1876.0 μg/act
- SoL mean delivered dose [3, 23]: 2205.7 μg/act
- TL mean delivered dose [3, 23]: 2012.2 μg/act
- EoL mean delivered dose [3, 24]: 2282.4 μg/act
- MoL mean delivered dose [3, 24]: 1884.0 μg/act
- SoL mean delivered dose [3, 24]: 1561.8 μg/act
- TL mean delivered dose [3, 24]: 1909.4 μg/act
- Through life dosing content uniformity, trend [4]: no trending between start, middle, and end of life
- average dose (through life dosing content uniformity) [4]: 950 μg/actuation

From patent US20260249027A1, “METERED DOSE INHALERS AND HIGH-DOSE SUSPENSIONS” (Kindeva Drug Delivery L.P., priority 2023, published 2026)
